“And” between values parts separate entries of the source, which are not always exact repeats. Equal entries are not always repeated.
Legend:
[1] = system: NQO1 activation in BEAS-2B cells; assay: BEAS-2B cellular MTT assay of NQO1 activation, 0% HSA; type: cell-based
Summary of the method: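 BEAS-2B cells grown in BEBM with BEGM SingleQuots (no GA-1000), kept below 70% confluence, seeded on collagen plates at a density giving 95-100% confluence after 48 h. Plates seeded in medium without HSA (0% HSA condition).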

[2] = biological target: HIS-Keap1 full length / Biotin-Nrf2 (16-mer) (Homo sapiens, UniProt Q14145); assay: biochemical
Chain of HIS-Keap1 full length / Biotin-Nrf2 (16-mer) (Q14145 whole entry): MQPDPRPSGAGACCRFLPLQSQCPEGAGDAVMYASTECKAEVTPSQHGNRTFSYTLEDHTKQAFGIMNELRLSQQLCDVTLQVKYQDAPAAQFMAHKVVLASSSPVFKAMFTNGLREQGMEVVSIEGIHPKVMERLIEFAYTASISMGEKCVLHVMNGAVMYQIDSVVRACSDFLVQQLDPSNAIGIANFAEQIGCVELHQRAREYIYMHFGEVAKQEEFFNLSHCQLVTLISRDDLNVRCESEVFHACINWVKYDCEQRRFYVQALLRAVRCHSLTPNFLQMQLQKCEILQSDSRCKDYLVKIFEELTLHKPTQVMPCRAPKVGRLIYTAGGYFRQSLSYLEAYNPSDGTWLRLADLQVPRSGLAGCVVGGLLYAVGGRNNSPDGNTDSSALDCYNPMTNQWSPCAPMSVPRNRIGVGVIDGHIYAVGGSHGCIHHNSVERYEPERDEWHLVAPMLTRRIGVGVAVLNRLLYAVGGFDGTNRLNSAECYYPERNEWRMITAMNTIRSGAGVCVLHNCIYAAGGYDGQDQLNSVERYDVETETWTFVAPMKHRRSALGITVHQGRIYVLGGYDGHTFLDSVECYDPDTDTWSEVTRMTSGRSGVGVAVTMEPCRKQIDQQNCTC

[3] = system: NQO1 activation in BEAS-2B cells; assay: BEAS-2B cellular MTT assay of NQO1 activation, 0.3% HSA; type: cell-based
Summary of the method: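 BEAS-2B cells (<70% confluent in culture, BEBM/SingleQuots without GA-1000) seeded in collagen plates with 0.3% or 0% HSA, reaching 95-100% confluency after 48 h at 37 °C, 5% CO2; MTT read-out.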

[4] = Homo sapiens, Serum Free W, read-out: BEAS EC50 (nM) Serum Free W
[5] = Homo sapiens, serum free, read-out: BEAS EC50 (nM) serum free
[6] = Serum Free W, read-out: BEAS EC50 (nM) Serum Free W
[7] = serum free, read-out: BEAS EC50 (nM) serum free
[8] = BEAS+ W, read-out: BEAS+ W EC50
[9] = Homo sapiens, BEAS+ W, read-out: BEAS+ W EC50
[10] = Homo sapiens, BEAS+, read-out: BEAS+ EC50

| SMILES | EC50 [1, 4] | EC50 [1, 5] | EC50 [1, 6] | EC50 [1, 7] | IC50 [2] | EC50 [3, 8] | EC50 ([3]; BEAS+, read-out: BEAS+ EC50) | EC50 [3, 9] | EC50 [3, 10] |
| --- | --- | --- | --- | --- | --- | --- | --- | --- | --- |
| Cc1c2cnc3c1nnn3CCCCCCOc1cc(F)c(c(F)c1)C(=O)N1CCc3ccc(cc3C1)C2CC(=O)O (stereo not shown) [Compound 128] | 9.8 nM | 14.2 nM | 7.1 nM | 12.2 nM | 1 nM and 1.4 nM | 47.2 nM | 20.3 nM | 31 nM | 17.7 nM |
| Cc1c2ccc3c1nnn3CCCCCc1ccc(cc1)C(=O)N1CCc3ccc(cc3C1)[C@H]2[C@H](C)C(=O)O [Compound 133] | 16 nM |  | 31 nM |  | 1.4 nM and 1.3 nM | 38.9 nM |  | 39.4 nM |  |
| Cc1c2ccc3c1nnn3CCCCCCc1ccc(cc1)C(=O)N1CCc3ccc(cc3C1)[C@H]2[C@H](C)C(=O)O [Compound 134] | 56.5 nM | 22.6 nM | 90.8 nM | 20.2 nM | 3.8 nM (2×) and 10.4 nM and 9.8 nM | 203 nM | 72.8 nM | 143 nM | 80.5 nM |
| Cc1c2cnc3c1nnn3CCCCCCc1ccc3c(c1)cc(n3C)C(=O)N1CCc3ccc(cc3C1)C2CC(=O)O (stereo not shown) [Compound 135] | 1.9 nM |  | 1.8 nM |  | 0.9 nM and 1.2 nM | 11.8 nM |  | 18.9 nM |  |
| Cc1c2cnc3c1nnn3CCCCCc1cc(F)c(c(F)c1)C(=O)N1CCc3ccc(cc3C1)[C@@H]2CC(=O)O [Compound 136] |  | 10 nM |  | 7.3 nM | 1.4 nM and 1.3 nM |  | 24.3 nM |  | 15 nM |
| Cc1c2cnc3c1nnn3CCCCCc1ccc(c(F)c1)C(=O)N1CCc3ccc(cc3C1)C2CC(=O)O (stereo not shown) [Compound 137] |  | 1.9 nM |  | 1.8 nM | 0.3 nM |  | 2.8 nM |  | 1.9 nM |
| Cc1c2cnc3c1nnn3CCCCCc1cc(F)c(c(F)c1)C(=O)N1CCc3ccc(cc3C1)[C@H]2CC(=O)O [Compound 139] |  | 0.2 nM |  |  | 0.1 nM |  | 0.3 nM |  | 0.2 nM |
| Cc1c2cnc3c1nnn3CCCCCCc1ccc(cc1)C(=O)N1CCc3ccc(cc3C1)[C@H]2CC(=O)O [Compound 140] |  | 11.6 nM |  | 8.8 nM | 0.3 nM and 0.5 nM |  | 27.3 nM |  | 30.4 nM |
| Cc1c2ccc3c1nnn3CCCCCCc1ccc(c(F)c1)C(=O)N1CCc3ccc(cc3C1)[C@H]2[C@@H](C)C(=O)O [Compound 141] | > 1000 nM |  |  |  | > 990 nM | 7040 nM |  | 7200 nM |  |
| Cc1c2cnc3c1nnn3CCCCCc1ccc3c(c1)cc(n3C)C(=O)N1CCc3ccc(cc3C1)C2CC(=O)O (stereo not shown) [Compound 143] | 2.2 nM |  | 2.6 nM |  | 0.7 nM | 10.6 nM |  | 10.3 nM |  |
| O=C(O)CC1c2ccc3c(c2)CN(CC3)C(=O)c2ccc(cc2F)CCCCCn2nnc3c(Cl)c1ccc32 (stereo not shown) [Compound 145] |  | 0.6 nM |  | 0.5 nM | 0.1 nM |  | 0.7 nM |  | 0.4 nM |
| Cc1cc2ccc1C(=O)N1CCc3ccc(cc3C1)C(CC(=O)O)c1ccc(nc1C)OCCCCC2 (stereo not shown) [Compound 149] |  | 74.3 nM |  | 67.8 nM | 9.4 nM and 7.4 nM |  | 89.3 nM |  | 103 nM |
| Cc1nc2ccc1C(CC(=O)O)c1ccc3c(c1)CN(CC3)C(=O)c1ccc(cc1)CCCCCO2 (stereo not shown) [Compound 150] |  | 103 nM |  | 147 nM | 113 nM and 106 nM |  | 188 nM |  | 164 nM |
| Cc1cc2ccc1C(=O)N1CCc3ccc(cc3C1)C(CC(=O)O)c1cnc(cc1C)OCCCCO2 (stereo not shown) [Compound 151] |  | 216 nM |  | 170 nM | 2.4 nM and 2.7 nM |  | 121 nM |  | 230 nM |
| Cc1cc2ccc1C(=O)N1CCc3ccc(cc3C1)C(CC(=O)O)c1ccc(nc1)OCCCCC2 (stereo not shown) [Compound 154] |  | 16.6 nM |  | 13.6 nM | 3.3 nM and 3.5 nM |  | 35.8 nM |  | 37.8 nM |
| Cc1c2ccc3c1nnn3CCCCCCOc1ccc(cc1)C(=O)N1CCc3ccc(cc3C1)[C@H]2[C@@H](C)C(=O)O [Compound 155] |  | > 10000 nM |  |  | 734 nM and 514 nM |  |  |  | > 10000 nM |
| Cc1cc2ncc1C(CC(=O)O)c1ccc3c(c1)CN(CC3)C(=O)c1ccc(cc1)CCCCCO2 (stereo not shown) [Compound 157] |  | 3.2 nM |  | 2.1 nM | 3.8 nM and 4 nM |  | 8.9 nM |  | 9.2 nM |
| Cc1c2ccc3c1nnn3CCCCCCOc1ccc(cc1)C(=O)N1CCc3ccc(cc3C1)[C@H]2[C@H](C)C(=O)O [Compound 159] |  | 113 nM |  | 122 nM | 6.9 nM and 7.2 nM |  | 480 nM |  | 461 nM |
| Cc1cc2ncc1C(CC(=O)O)c1ccc3c(c1)CN(CC3)C(=O)c1c(F)cc(cc1F)CCCCCO2 (stereo not shown) [Compound 161] |  | 1.4 nM |  | 0.7 nM and 1.1 nM | 2.5 nM and 2.3 nM and 1 nM (2×) |  | 6 nM and 7.5 nM and 5.2 nM |  | 7.8 nM |

| SMILES | EC50 [1, 4] | EC50 [1, 5] | EC50 [1, 6] | EC50 [1, 7] | IC50 [2] | EC50 [3, 8] | EC50 ([3]; BEAS+, read-out: BEAS+ EC50) | EC50 [3, 9] | EC50 [3, 10] |
| --- | --- | --- | --- | --- | --- | --- | --- | --- | --- |
| C[C@H](C(=O)O)[C@@H]1c2ccc(nc2)OCCCCCc2cc(F)c(c(F)c2)C(=O)N2CCc3ccc1cc3C2 [Compound 162] |  | 0.6 nM |  |  | 2.1 nM and 2 nM |  |  |  | 0.8 nM |
| Cc1cc2ccc1C(=O)N1CCc3ccc(cc3C1)C(CC(=O)O)c1cnc(cc1C)OCCCCC2 (stereo not shown) [Compound 163] |  | 2.6 nM |  | 3.3 nM | 2.4 nM |  | 9.3 nM |  | 10 nM |
| C[C@@H](C(=O)O)[C@@H]1c2ccc(nc2)OCCCCCc2cc(F)c(c(F)c2)C(=O)N2CCc3ccc1cc3C2 [Compound 164] |  | 16 nM |  | 20.3 nM | 51.2 nM and 59.3 nM |  | 34 nM |  | 32.6 nM |
| COc1cc2ccc1CCCCCn1nnc3c(C)c(cnc31)C(CC(=O)O)c1ccc3c(c1)CN(CC3)C2=O (stereo not shown) [Compound 165] |  | 11.7 nM |  | 13.3 nM | 1.7 nM and 1.6 nM |  | 21.1 nM |  | 26 nM |
| Cc1c2ccc3c1nnn3CCCCCCc1ccc(c(F)c1)C(=O)N1CCc3ccc(cc3C1)[C@H]2[C@H](C)C(=O)O [Compound 166] | 1.1 nM |  |  |  | 0.7 nM and 0.6 nM | 2.7 nM and 2.9 nM and 4.2 nM |  | 2.2 nM |  |
| Cc1c2ccc3c1nnn3CCCCCCc1ccc(c(F)c1)C(=O)N1CCc3ccc(cc3C1)[C@@H]2[C@@H](C)C(=O)O [Compound 167] | 34.7 nM |  | 36.6 nM |  | 12.3 nM and 14.1 nM | 133 nM |  | 103 nM |  |
| Cc1c2cnc3c1nnn3CCCCCc1cc(F)c(c(F)c1)C(=O)N1CCc3ccc(cc3C1)C2CC(=O)O (stereo not shown) [Compound 168] |  | 1.3 nM |  | 1.2 nM | 2.2 nM |  | 3.4 nM |  | 3.7 nM |
| Cc1cc2ncc1C(CC(=O)O)c1ccc3c(c1)CN(CC3)C(=O)c1ccc(cc1)OCCCCO2 (stereo not shown) [Compound 169] |  | 84.4 nM |  | 55.9 nM | 68.9 nM and 66.2 nM |  | 175 nM |  | 155 nM |
| Cc1cc2ccc1C(=O)N1CCc3ccc(cc3C1)C(CC(=O)O)c1cnc3c(nnn3CCCCCC2)c1C (stereo not shown) [Compound 170] |  | 28.3 nM |  | 20.4 nM | 6.3 nM and 6.5 nM |  | 54.3 nM |  | 50.1 nM |
| Cc1cc2ccc1C(=O)N1CCc3ccc(cc3C1)C(CC(=O)O)c1ccc3c(nnn3CCCCCC2)c1Cl (stereo not shown) [Compound 171] |  | 1 nM |  | 1.6 nM | 2.5 nM |  | 5.4 nM |  | 8.3 nM |
| O=C(O)C[C@H]1c2ccc(nc2)OCCCCCc2ccc(cc2)C(=O)N2CCc3ccc1cc3C2 [Compound 172] |  | 79.2 nM |  | 73 nM | 216 nM and 227 nM |  | 263 nM |  | 188 nM |
| O=C(O)C[C@@H]1c2ccc(nc2)OCCCCCc2ccc(cc2)C(=O)N2CCc3ccc1cc3C2 [Compound 173] |  | 3.7 nM |  | 4.3 nM | 12.5 nM and 12.4 nM |  | 13.1 nM |  | 12.8 nM |
| Cn1c2cc3cc(cnc31)CCCCCn1nnc3c(Cl)c(ccc31)C(CC(=O)O)c1ccc3c(c1)CN(CC3)C2=O (stereo not shown) [Compound 174] |  | 5.8 nM |  | 7.3 nM | 2 nM and 2.1 nM |  | 15.5 nM |  | 29.4 nM |
| Cc1c2ccc3c1nnn3CCCCCCc1ccc(cc1)C(=O)N1CCc3ccc(cc3C1)[C@@H]2[C@H](C)C(=O)O [Compound 175] |  | 53.3 nM |  | 53.7 nM | 10.4 nM and 10.3 nM |  | 125 nM |  | 104 nM |
| Cc1cc2ccc1C(=O)N1CCc3ccc(cc3C1)C(CC(=O)O)c1ccc(nc1C)OCCCCO2 (stereo not shown) [Compound 178] |  | 1160 nM |  | 1140 nM | 113 nM and 105 nM |  | 933 nM |  | 1410 nM |
| Cc1c2ccc3c1nnn3CCCCCCOc1ccc(cc1)C(=O)N1CCc3ccc(cc3C1)[C@@H]2[C@H](C)C(=O)O [Compound 179] |  | 113 nM |  | 91.5 nM | 5.7 nM |  | 208 nM |  | 235 nM |
| Cc1nc2ccc1C(CC(=O)O)c1ccc3c(c1)CN(CC3)C(=O)c1c(F)cc(cc1F)OCCCCO2 (stereo not shown) [Compound 180] |  | 701 nM |  | 878 nM | 253 nM and 296 nM |  | 1000 nM |  | 1300 nM |
| Cc1cc2ccc1C(=O)N1CCc3ccc(cc3C1)C(CC(=O)O)c1cnc(nc1)OCCCCO2 (stereo not shown) [Compound 182] | > 1000 nM |  |  |  | 55.7 nM and 44 nM |  |  | > 10000 nM |  |

From patent US12692274B2, “Tetrahydroisoquinoline derivatives for the treatment of red blood disorders and inflammatory diseases” (Sanofi, priority 2020, dated 2026)
